Data published in US20020065314A1, “COMPOSITIONS AND METHOD FOR STIMULATING HAIR GROWTH” (priority 1995, published 2002).
Where two headings read alike, the source gives them in different places. Values belong to the molecule of their own block, whether it stands above or below them.

Key:
C57BL/KsJ db/+ mice = tested on: C57BL/KsJ db/+ mice
Experimental: The induction of hair loss following treatment with certain anticancer drugs, such as cyclophosphamide or doxorubicin, is well documented (A. Tierney & J. Taylor (1991) Nurs. Stand 5:29-31; R. R. Love, et al. (1989) Cancer 63:604-612; B. W. Cline (1984) Cancer Nurs. 7:221-228). The following experiment was performed to determine the effect of n-butyl cyanoacrylate on hair regrowth in mice pre-treated with cyclophosphamide or doxorubicin. Twenty mice of strain C57BL/KsJ db/+ were peritoneally injected with either cyclophosphamide in PBS (20 mg per kilogram of body weight) or Doxorubicin in PBS (2 mg per kilogram of body weight) for 10 consecutive days. Then a single 10 μl dose of n-butyl cyanoacrylate was applied topically to an area of the shaved dorsum of each animal. Control mice, which were injected with PBS alone, were treated similarly. The effects of hair regrowth were determined both by phototrichogram (macroscopic observation using photography) and by folliculogram (microscopic observation of histological changes in the treated and untreated skin).

[1] = tested on: C57BL/KsJ db/+ and C57BL/KsJ db/db mice; experiment: Effect of isobutyl cyanoacrylate on hair growth, topical; assay type: in vivo, mouse; conditions: for Hair growth: 10 μl cm^−2 topical
Experimental: The following experiment was performed to identify the effect of isobutyl cyanoacrylate, a structural analog of n-butyl cyanoacrylate, on hair growth. The shaved backs of C57BL/KsJ db/+ and C57BL/KsJ db/db mice were treated topically at a dose of 10 μl cm^−2 with either isobutyl cyanoacrylate (Sigma Chemical Co., St Louis, Mo.) or n-butyl cyanoacrylate.

[2] = tested on: C57BL/KsJ db/+ and C57BL/KsJ db/db mice; experiment: Effect of isobutyl cyanoacrylate on hair growth, topical; assay type: in vivo, mouse
hair growth = experiment: Hair growth stimulation by comparison agents; conditions: in vivo

Compound: O=P1(N(CCCl)CCCl)NCCCO1 (stereo not shown) [cyclophosphamide, reference compound]
pigmentation of new hair and skin in pre-treated animals (C57BL/KsJ db/+ mice; pre-treatment with the anticancer drug, then topical n-butyl cyanoacrylate): lack of pigmentation in the new growth hairs

pigmentation of new hair and skin in pre-treated animals (C57BL/KsJ db/+ mice; mouse, in vivo): normal pigmentation
Compound: COc1cccc2c1C(=O)c1c(O)c3c(c(O)c1C2=O)C[C@@](O)(C(=O)CO)C[C@@H]3O[C@H]1C[C@H](N)[C@H](O)[C@H](C)O1 [doxorubicin, reference compound]

Compound: C=C(C#N)C(=O)OCC(C)C [isobutyl cyanoacrylate]
Hair growth ([1]; C57BL/KsJ db/+): 3+ (high hair regeneration with an area larger than 50% of the treated area)
Hair growth ([1]; C57BL/KsJ db/db): 3+ (high hair regeneration with an area larger than 50% of the treated area)
hair growth response compared with that of n-butyl cyanoacrylate ([1]; both strains): nearly identical
time at which hair growth was visible ([1]; both strains, post treatment): 8 to 12 days
time at which hair reached full length ([1]; both strains, post treatment): 15 to 18 days
time at which many new hair follicles occurred in treated area ([1]; both strains, post treatment): 2 to 3 days
response compared with hair growth induced by n-butyl cyanoacrylate (mice and rats; mice and rats): very similar
hair growth in normal intact skin, in skin of animals pre-treated with anticancer drugs, and at edges of wounds (mice and rats; two species (rat and mouse), seven strains of mouse): stimulate hair growth
hair growth on dorsum (photograph) ([2]; C57BL/KsJ +/+ mouse, 19 days post application): “T” pattern of hair growth
hair growth response to formulation with about 0.01% monomethyl hydroquinone ([2]; several strains of mice): positive response

Compound: CCCCOC(=O)CCCCCCCCC(=O)OCCCC [sebacic acid dibutyl ester]
stimulation of hair growth (hair growth): not effective in stimulating hair growth
